The term EC50 denotes the midpoint of the concentration-response curve. A word on the Emax: it is the greatest response seen or fitted, relative to the assay's reference.

These results are taken from patent publication US20240336571A1, “NOVEL CYCLOPROPYL COMPOUNDS” (ICAGEN, LLC, priority 2021, published 2024).

The test addresses human Kv7.2 (Homo sapiens (Human), UniProt O43526). Briefly: SyncroPatch 384 electrophysiology, activation of Kv7.2 in CHO cells. As to conditions: for EC50: CHO cells stably expressing human Kv7.2, potassium current at -90 mV repolarizing step, in presence of zinc pyrithione; for Emax: CHO. In kind it is cell-based. The method, then: The potency of Kv7 potentiators was determined using the SyncroPatch 384 (Nanion) high throughput electrophysiology platform.
CHO cells stably expressing either human Kv7.2, Kv7.4 or Kv7.5/7.3 under a constitutive CMV promoter were used for these studies. Cells were maintained in F12 Hams+1 mM L-glutamine (Hyclone) supplemented with 10% FBS (Sigma), 0.3×NEAA (Non-essential Gamino-acids) and 400 ug/ml G418 at 37° C. in 5% CO2. Cells were cultured in T-225 flasks (Nunc) for 2-3 days to reach 85-95% confluence prior to electrophysiological recording.
Earle's balanced salt solution (in mM): 135 NaCl, 5.4 KCl, 5 Glucose, 2 CaCl2, 1 MgCl2, 5 HEPES, pH 7.4. Seal enhancer solution (in mM): 90 NaCl, 3 KCl, 35 CaCl2, 10 MgCl2, 10 HEPES, pH 7.4. Extracellular recording solution (in mM): 71 NaCl, 70 NMDG, 13 KCl, 5 Glucose, 2 CaCl2, 1 MgCl2, 10 HEPES, pH 7.4. Intracellular recording solution (in mM): 130 KF, 20 KCl, 4 EGTA, 10 HEPES, 2 EDTA, 0.01 Escin, pH 7.2.
Cells were harvested for electrophysiological recording upon reaching appropriate confluence. Cells were first washed in DPBS (Hyclone, Cat #SH30028.03) and then 2 ml of Accutase (MP Biomedicals #1000449) was added at 28° C. until ˜90% of cells were suspended. F12 HAM's media+1 mM L-glutamine (Hyclone, SH30026.02) was then added to the flask to dilute the accutase. Cells were then triturated until a single cell suspension was achieved, a cell count was performed, and cells were centrifuged for 2 min. at 1,000 rpm. Media was then aspirated, and cells were resuspended in Earle's balanced salt solution to a concentration of 0.75×10^6 cells/ml and allowed to recover for 25 min at 10° C.
At the beginning of each assay, 20 μl of cell suspension was dispensed into each well of a multi-hole 384-well SyncroPatch chip by the onboard pipettor. Cell sealing was initiated, and seal enhancer solution was added to facilitate seal formation. Upon completion of sealing, cells were washed 3 times with extracellular recording solution and the assay voltage protocol was started. Human Kv7.2, Kv7.4 or Kv7.5/7.3 channels were evaluated using a voltage protocol in which cells were voltage-clamped at a holding potential of −60 mV. Potassium currents were continuously activated with a series of three voltage steps to −30 mV for 3 seconds, 40 mV for 1 second and −90 mV for 4 seconds with 12 seconds between successive voltage sweeps. Potassium currents were measured from the −90 mV repolarizing step. Baseline current was assessed for 3.5 minutes prior to the addition of 5.6 μM zinc pyrithione (1 μM for Kv7.4). Kv7.2, Kv7.4 or Kv7.5/7.3 current in the presence of zinc pyrithione was acquired over five minutes to allow channels to reach steady state activity prior to addition of test agents. Channel activity was monitored for three minutes preceding the addition of 30 μM ML-213 (3 minutes) to achieve maximum activation. 150 mM TEA with 10 μM XE-991 was applied for 2 minutes to measure the leak current during maximum inhibition of Kv7.2, Kv7.4 or Kv7.5/7.3 channels.
Data were collected on the SyncroPatch platform using PatchControl software (Nanion) and processed and analyzed using DataControl Software (Nanion). Percent activation was calculated from potassium current as follows: The average current for the 5 sweeps in the presence of zinc pyrithione immediately preceding test agent addition was taken as the ‘control’ data. Likewise, the average potassium current in the presence of test agents 5 sweeps immediately preceding addition of 30 μM ML-213 was determined for ‘drug’ data. The average potassium current 5 sweeps immediately prior to addition of 150 mM TEA+10 μM XE-991 was determined for ‘max activation’ data while average currents from 5 sweeps immediately following addition of TEA was determined for ‘max inhibition’ data. Percent activation for each of the 384-wells of a sealchip was calculated as ((‘drug’−‘max inhibition’)/(‘max activation’−‘max inhibition’))*100 with Pipeline Pilot (Accelrys). […]
A general note: The patch-clamp technique gives a direct electrical read-out from membranes.

The mark [1] stands for this setting: Kv7.2 activation max %, relative to 30 μM ML-213 max activation.

`O=C(NCc1ccnc(Cl)c1)N[C@@H]1C[C@H]1c1ccccc1` [Example 19, 1-[(2-chloropyridin-4-yl)methyl]-3-[(1R,2S)-2-phenylcyclopropyl]urea]: the EC50 is 6830 nM. Also, the Emax under setting [1] is 60%.
The corresponding values for `N#Cc1cccc(CNC(=O)N[C@@H]2C[C@H]2c2ccccc2)n1` [Example 18, 1-[(6-cyanopyridin-2-yl)methyl]-3-[(1R,2S)-2-phenylcyclopropyl]urea] are 3020 nM and 62%.
`O=C(NCc1ccnc(C2COC2)c1)N[C@@H]1C[C@H]1c1ccccc1` [Example 32]: the EC50 was 3020 nM. Under setting [1], the Emax worked out at 40%.
For the molecule `O=C(NCc1ccnc(OC(F)F)c1)N[C@@H]1C[C@H]1C1CCCO1` (mixture of isomers) [Example 43, 1-[[2-(difluoromethoxy)pyridin-4-yl]methyl]-3-[rac-(1R,2R)-2-(oxolan-2-yl)cyclopropyl]urea], the EC50 is 8010 nM. The Emax under setting [1] stood at 61%.
The corresponding values for `C[C@]1(C(F)(F)F)C[C@@H]1NC(=O)NCc1ccnc(OC(F)F)c1` (racemic) [Example 47, 1-[[2-(difluoromethoxy)pyridin-4-yl]methyl]-3-[rac-(1R,2R)-2-methyl-2-(trifluoromethyl)cyclopropyl]urea] are 50 nM and 77%.
The corresponding values for `O=C(NCc1ccnc(-n2ccc(C(F)(F)F)n2)c1)N[C@@H]1C[C@H]1c1ccccc1` [Example 39, 1-[(1R,2S)-2-phenylcyclopropyl]-3-[[2-[3-(trifluoromethyl)pyrazol-1-yl]pyridin-4-yl]methyl]urea] are 70 nM and 78%.
For `O=C(NCc1ccnc(OC(F)F)c1)N[C@@H]1C[C@H]1C(F)(F)F` [Example 41, 1-[[2-(difluoromethoxy)pyridin-4-yl]methyl]-3-[(1R,2R)-2-(trifluoromethyl)cyclopropyl]urea], the EC50 is 230 nM. For the same molecule, the maximum response (Emax) under setting [1] amounted to 54%.
The corresponding values for `C[C@H](NC(=O)N[C@@H]1C[C@H]1c1ccccc1)c1ccnc(OC(F)F)c1` [Example 30, 1-((S)-1-(2-(difluoromethoxy)pyridin-4-yl)ethyl)-3-((1R,2S)-2-phenylcyclopropyl)urea] are 210 nM and 72%.
The corresponding values for `O=C(NCc1ccnc(-n2cccn2)c1)N[C@@H]1C[C@H]1C1CCCCC1` (racemic) [Example 2, 1-[rac-(1R,2S)-2-cyclohexylcyclopropyl]-3-[(2-pyrazol-1-ylpyridin-4-yl)methyl]urea] are 570 nM and 84%.
`O=C(NCc1ccnc(OCC(F)CF)c1)N[C@@H]1C[C@H]1c1ccccc1` (stereo partly drawn) [Example 48, 1-[[2-(2,3-difluoropropoxy)pyridin-4-yl]methyl]-3-[(1R,2S)-2-phenylcyclopropyl]urea]: the 50% effective concentration (EC50) was determined as 570 nM. Under setting [1], the Emax turned out to be 70%.
With “1-[(1S,2R)-2-cyclohexylcyclopropyl]-3-[(2-imidazol-1-ylpyridin-4-yl)methyl]urea [Example 15]”, the EC50 came to 1570 nM. Moreover, the “Kv7.2 Emax” value under setting [1] is 56%.
As for `CC(F)(F)c1cc(CNC(=O)N[C@@H]2C[C@H]2c2ccccc2)ccn1` [Example 26, 1-[[2-(1,1-difluoroethyl)pyridin-4-yl]methyl]-3-[(1R,2S)-2-phenylcyclopropyl]urea], the EC50 turned out to be 1560 nM. Besides, under setting [1], the Emax was 97%.
With `O=C(NCc1ccnc(-n2cnc(C(F)(F)F)c2)c1)N[C@@H]1C[C@H]1c1ccccc1` [Example 31, 1-[(1R,2S)-2-phenylcyclopropyl]-3-[[2-[4-(trifluoromethyl)imidazol-1-yl]pyridin-4-yl]methyl]urea], the EC50 was determined as 500 nM. Under setting [1], the Emax stood at 44%.
For `CC(C)Oc1cc(CNC(=O)N[C@@H]2C[C@H]2c2ccccc2)ccn1` [Example 6, 1-[(1R,2S)-2-phenylcyclopropyl]-3-[(2-propan-2-yloxypyridin-4-yl)methyl]urea], in that order: 660 nM and 64%.
For `[2H]C([2H])(NC(=O)N[C@@H]1C[C@H]1C(F)(F)F)c1ccnc(OC(F)F)c1` (racemic) [Example 50, 1-[dideuterio-[2-(difluoromethoxy)pyridin-4-yl]methyl]-3-[rac-(1R,2R)-2-(trifluoromethyl)cyclopropyl]urea], in that order: 620 nM and 47%.
For `O=C(NCc1ccnc(-c2cnco2)c1)N[C@@H]1C[C@H]1C1CCCCC1` (racemic) [Example 23, 1-[[2-(1,3-oxazol-5-yl)pyridin-4-yl]methyl]-3-[rac-(1R,2S)-2-cyclohexylcyclopropyl]urea], in that order: 920 nM and 63%.
Turning to `C[C@@H](NC(=O)N[C@@H]1C[C@H]1c1ccccc1)c1ccnc(OC(F)F)c1` (stereo in doubt) [Example 38], the EC50 was 3810 nM. In addition, the Emax under setting [1] is 42%.
The corresponding values for `O=C(NCc1ccnc(OCC(F)(F)F)c1)N[C@@H]1C[C@H]1c1ccccc1` [Example 14, 1-[(1R,2S)-2-phenylcyclopropyl]-3-[[2-(2,2,2-trifluoroethoxy)pyridin-4-yl]methyl]urea] are 70 nM and 71%.
For `O=C(NCc1cc(OC(F)F)ncn1)N[C@H]1C[C@@H]1C(F)(F)F` [Example 52, 1-[[6-(difluoromethoxy)pyrimidin-4-yl]methyl]-3-[(1S,2S)-2-(trifluoromethyl)cyclopropyl]urea], in that order: 1000 nM and 43%.
As to `C[C@H]1[C@H](NC(=O)NCc2ccnc(OC(F)F)c2)C1(F)F` (racemic) [Example 42, 1-[[2-(difluoromethoxy)pyridin-4-yl]methyl]-3-[rac-(1R,3R)-2,2-difluoro-3-methylcyclopropyl]urea], the EC50 was found to be 1030 nM. Moreover, the Emax under setting [1] was 58%.
`O=C(NCc1ccnc(Cl)c1)N[C@@H]1C[C@H]1C1CCCCC1` (racemic) [Example 17, 1-[(2-chloropyridin-4-yl)methyl]-3-[rac-(1R,2S)-2-cyclohexylcyclopropyl]urea]: the EC50 turned out to be 1760 nM. Besides, the Emax under setting [1] came out at 61%.
Turning to `O=C(NCc1ccnc(OCC(F)F)c1)N[C@@H]1C[C@H]1c1ccccc1` [Example 35, 1-[[2-(2,2-difluoroethoxy)pyridin-4-yl]methyl]-3-[(1R,2S)-2-phenylcyclopropyl]urea], the EC50 worked out at 200 nM. Further, under setting [1], the Emax stood at 66%.
Turning to `C[C@@]1(NC(=O)NCc2ccnc(OC(F)F)c2)C[C@H]1c1ccccc1` (racemic) [Example 36, 1-[[2-(difluoromethoxy)pyridin-4-yl]methyl]-3-[rac-(1R,2S)-1-methyl-2-phenylcyclopropyl]urea], the EC50 was determined as 120 nM. The Emax under setting [1] turned out to be 69%.
For the molecule `CC(F)(F)[C@@H]1C[C@H]1NC(=O)NCc1ccnc(OC(F)F)c1` (racemic) [Example 44, 1-[[2-(difluoromethoxy)pyridin-4-yl]methyl]-3-[rac-(1R,2R)-2-(1,1-difluoroethyl)cyclopropyl]urea], the EC50 came out at 330 nM. Moreover, the Emax under setting [1] turned out to be 40%.
For `O=C(NCc1cccc(Cl)n1)N[C@@H]1C[C@H]1C1CCCCC1` (racemic) [Example 3, 1-[(6-chloropyridin-2-yl)methyl]-3-[rac-(1R,2S)-2-cyclohexylcyclopropyl]urea], in that order: 1540 nM and 77%.
